This is an account of results in a melting point compilation (Tetko et al.; mined from patent text by program, amines drawn as free bases though some values may be those of a salt).

Where only a bound is given, the exact number is not on record here.

Turning to `Cc1cccc(-c2cc(C(=O)NCCCCCCCc3ccccc3)cc(-c3cccc(C)c3)c2OCC(=O)O)c1`, the melting point is 58 to 62 °C.
`CC(C)CCCC(C)C1CCC2C3CC=C4CC(NC(=O)CCN(C)C(=O)OC5c6ccccc6-c6ccccc65)CCC4(C)C3CCC12C` (configuration not stated) came in with a melting point of 124 to 128 °C.
Compound `CNC(=O)N(C)c1nc(CC(=O)Nc2nnc(C(C)(C)C)s2)cs1` showed a melting point of 175 to 177 °C.
With `CC(C)(C)c1ccc(-c2cc(C(=O)/C=C/c3ccc(C(=O)O)cc3)cc3c2C(C)(C)CCC3(C)C)cc1`, the melting point stood at 241 °C.
Take `COC(=O)Cc1cccc(NCCCBr)c1`: the melting point fell in the range of 129 to 130 °C.
In turn, `O=C1CCC(N2Cc3c(OCc4cccc(CN5CCOCC5)c4)cccc3C2=O)C(=O)N1` (configuration not stated) had a melting point of 247 to 249 °C.
Turning to `N#Cc1cc(S(=O)(=O)c2ccc(Cl)cc2)[nH]c1-c1ccc(Cl)cc1`, the melting point was in the range of 159 to 160 °C.
To `CC(=O)OCC1OC(n2cc(C3=C(c4c[nH]c5ncccc45)C(=O)N(COCc4ccccc4)C3=O)c3cccnc32)C(OC(C)=O)C(OC(C)=O)C1OC(C)=O` (configuration not stated) belongs 127 to 129 °C; to `CCCc1nn(-c2ccc(C(F)(F)F)cn2)cc1CCCCOc1c(CC(=O)O)cccc1OC`, 111 to 112 °C; to `COCCC1CCCCN1C(=O)C=Cc1c(-c2ccccc2)nn2ccccc12` (configuration not stated), 139 to 140 °C.
`COc1ccc(C2(O)c3ccccc3-c3ccccc32)cc1` gave a melting point of 91 to 93 °C.
`COC(=O)C1=C(C)Nc2nccn2C1c1cccc(C2(C)OCCO2)c1` (configuration not stated) registered a melting point of 199 to 201 °C.
To `S=C(OCc1ccc(Cl)c(Cl)c1)SC(Cn1ccnc1)c1ccc(Cl)cc1Cl` (configuration not stated) belongs 140 °C; to `c1cncc(-c2ccc3nncn3c2)c1`, 200 to 202 °C.
With `CCOC(=O)c1ncn2c1CN(C)C(=O)c1c(Br)cccc1-2`, the melting point lay within 214 to 215 °C.
`ON=C1CCn2c(-c3ccc(Br)cc3)nc3c(Cl)ccc1c32`: the melting point is greater than 250 °C.
As for `Oc1ccccc1CNCc1cccc(CNCc2ccccc2O)c1`, the melting point was 61 to 63 °C.
As to `CC1=C(C(=O)c2ccc(C(C)(C)C)cc2)C(=O)C2C=CC=CC2C1=O` (configuration not stated), the melting point is 64 to 65 °C.
Regarding `COc1ccc(Nc2cc(NCCCO)ncn2)cc1`, the melting point was 151 to 152 °C.
`O=C(CCN1CCN(c2cnc3ccccc3c2)CC1)c1csc2ccccc12` returned a melting point of 112 to 114 °C.
Consider `CC(C)NC1=NS(=O)(=O)c2cc(Cl)sc2N1`, for which the melting point is 272 to 274 °C.
For the compound `CC(C)(C)c1ccc(CN2C(=O)N(c3ccccc3)CSC2=NCC(F)(F)F)cc1`, the melting point is 113 to 114 °C.
In turn, `Cc1cccc(C(=O)c2ccc(OCC(=O)O)c(Cl)c2Cl)c1` returned a melting point of 173 to 175 °C.
The figure for `COC(=O)CCSC(SCCC(=O)OC)c1cccc(C=Cc2ccc3ccc(Cl)cc3n2)c1` is 53 °C; for `COc1ccccc1C(O)(CC#N)c1ccccc1OC` it is 170 to 180 °C; for `CSc1nncc(-c2ccco2)n1` it is 88 to 90 °C.
In turn, `COc1ccc(COc2cccc(-c3cnc4[nH]cc(C(=O)C(C)(C)C)c4n3)c2)cc1` returned a melting point greater than 300 °C.
`COc1cc2ccsc2c(Cl)c1Cl`: the melting point is 103 to 104 °C.
The figure for `CCCc1nc2c(N)nc3ccccc3c2n1CCCCCC(=O)OCC` is 112 to 113 °C.
`CCOc1ccc2c(c1)c(I)c1n2CCC1` displayed a melting point of 128 to 129 °C.
`CNC(=S)SCCC(=O)O` showed a melting point of 86 to 87 °C.
Turning to `CCCCCCCCCCCc1ccc(F)c(-c2nc(-c3ccccc3Cl)nn2C)c1`, the melting point was in the range of 35 to 37 °C.
As for `CCN1c2ncc(CCl)cc2C(=O)N(C)c2ccc(Cl)nc21`, the melting point was 133 to 134 °C.
To `CCCCCCCCCCCCc1ccc(S(=O)(=O)Nc2nnc(CC)s2)cc1` belongs 93 to 94 °C.
Regarding `Cn1c2cc(Cl)ccc2c(=O)c2c(Br)cccc21`, the melting point was in the range of 223 to 225 °C.
`Clc1ccc2c(c1)C(c1ccccc1)=NCC1CNCCN21` (configuration not stated) displayed a melting point of 132 to 135 °C.
Turning to `O=C(CN1CCOCC1)N1CCN(Cc2ccc3c(c2)-c2[nH]nc(-c4ccsc4)c2C3)CC1`, the melting point lay in the range of 240 to 242 °C.
To `O=C(NC1CCN(CCC2CCOc3ccccc32)CC1)c1cccnc1` (configuration not stated) belongs 126 to 128 °C; to `Cc1ccc(S(=O)(=O)N(C)c2ccc(F)cc2[N+](=O)[O-])cc1`, 93.5 to 94.5 °C.
`CCOC(=O)c1cnn2c1nc(OCCCN(C)C)c1cnc3c(cnn3CC)c12` came in with a melting point of 106 to 107 °C.
As for `O=c1[nH]c(S)ncc1O`, the melting point was greater than 300 °C.
Turning to `CC1CCC(C(C)C)C(OC(=O)[C@H]2C[C@@H]2C(=O)OC2CC(C)CCC2C(C)C)C1` (some centres not stated), the melting point is 95 to 96 °C.
For the compound `CCn1cc(C(=O)O)c(=O)c2cc(F)c(N3CCOC(CNC=O)C3)c(F)c21` (configuration not stated), the melting point lay in the range of 234 to 236 °C.
In turn, `Cc1cc(N)cc(C)c1-c1ccc(-c2c(C)cc(N)cc2C)o1` yielded a melting point of 144 to 146 °C.
To `CNC(=O)C(Cc1ccc(OC)cc1)NC(=O)C(CC(C)C)C(CC(=O)OC(C)(C)C)SC(C)=O` (configuration not stated) belongs 147 to 151 °C; to `CCCS(=O)c1c2ccccc2nc2c1c(C)nn2-c1ccccn1` (configuration not stated), 125 to 127 °C; to `Oc1ccccc1CNC1CCN(Cc2ccccc2)CC1`, 92.5 to 93 °C.
`CCC1=Nc2ccc(S(C)(=O)=O)cc2C(=O)C1`: the melting point is 283 °C.
`COc1ccc(-c2nc(NC(=O)c3ccccc3)sc2-c2ccnc(NC(=O)c3ccccc3)c2)cc1` gave a melting point of 230 to 233 °C.
As to `COC(=O)c1cc(C(=O)c2c(C)c(N(C)C(=O)c3cccc(OC)c3)c3ccccn23)ccc1[N+](=O)[O-]`, the melting point was found to be 158 °C.
The figure for `Cc1nc2ccnn2c(Cl)c1CCCl` is 87 to 88 °C.
`CC(=O)Nc1ccc(C(=O)NC(=O)N2CCC(Cc3ccc(F)cc3)CC2)cc1` showed a melting point of 156 to 171 °C.
Compound `O=C(O)c1ccccc1OCCCN1C(=O)c2ccccc2C1=O` registered a melting point of 155 to 157 °C.
`O=C(Nc1ccc2cc(CN3CCCC3)cnc2c1)c1ccc(-c2ccc(F)cc2)nc1` gave a melting point of 218 to 220 °C.
`CCCOc1ccccc1-c1nc2nnc(SC)nc2c(=O)[nH]1` came in with a melting point of 195 to 197 °C.
In turn, `O=C1c2ccccc2COc2ccc(CCC(=O)N(O)C3CCCCC3)cc21` gave a melting point of 146 to 147 °C.
With `CC(CC(=O)c1ccc(C(N)=S)cc1)C(=O)N1CCC(OCC(=O)OC(C)(C)C)CC1` (racemic), the melting point was 152 to 155 °C.
As for `O=C(CCNC(=O)C(Cc1ccccc1)CP(=O)(O)O)OCc1ccccc1` (configuration not stated), the melting point fell in the range of 122 to 123 °C.
`COc1cc2c(cc1C)C1(CO2)C(=O)N(Cc2ccccn2)c2ccccc21` (configuration not stated) gave a melting point of 142 to 144 °C.
For `O=C(CCl)Nc1ccc2c(c1NC(=O)c1ccccc1Cl)C(=O)c1ccccc1C2=O`, the melting point was 193 to 194 °C.
For `Cn1c2sc(C(=O)O)cc2c2cccc(Cl)c21`, the melting point lay within 233 to 234 °C.
The compound `Cc1ccc(C(=O)c2c(O)c3cc(C)ccc3[nH]c2=S)cc1` displayed a melting point of 280 °C.
